One assay deals with BMAL1 Lys537 acetylation. Put plainly: BMAL1 Lys537 acetylation profile in serum-entrained MEFs treated with FK866. The conditions noted are these: cultured MEFs. The class given is cell-based, mouse. The protocol:
This illustrates Nampt modulation of the circadian clock. Panel A depicts Pert and Dbp gene expression levels in serum-entrained MEFs treated with 10 nM FK866 or EtOH as control (solvent:ctrl) were analyzed by q-PCR. The highest value for each gene in EtOH treated MEFs was set to 1. All data presented are the means±SEM of three independent samples. […] Cell extracts prepared from indicated time points were processed to visualize BMAL1 acetylation using the anti-acetyl specific BMAL1 antibody as described herein. Input samples were probed with anti-BMAL1 and anti-GAPDH antibodies. Panel C is a schematic representation of the transcription-enzymatic interplay by which the circadian machinery governs the intracellular levels of NAD^+. The NAD^+-dependent deacetylase SIRT1 is thereby controlling the oscillatory synthesis of its own coenzyme.
NAMPT inhibitor “FK866” treatment experiments MEFs in growing phase (−50% confluent) were pre-treated with 10 nM FK866 dissolved in ethanol/serum-free DMEM 16 hr prior to high serum treatment. After 2 hr serum treatment, medium were changed to serum-free medium containing 10 nM FK866. […]

For a further assay, the target named is Nampt (Homo sapiens, UniProt P43490). The conditions noted are these: literature (ref. 30); cited from earlier work.
Assay [1] relates to Per2 and Dbp gene expression in MEFs. Put plainly: Per2 and Dbp gene expression in serum-entrained MEFs treated with FK866, q-PCR. Format: cell-based, mouse. The conditions noted are these: MEFs pretreated with 10 nM FK866, then serum-stimulated. The protocol:
Each quantitative real-time RT-PCR was performed using the Chromo4 real time detection system (BIO-RAD). […] The reaction was first incubated at 95° C. for 3 min, followed by 40 cycles at 95° C. for 30 s and 60° C. for 1 min.

Nampt, sequence (P43490 whole entry): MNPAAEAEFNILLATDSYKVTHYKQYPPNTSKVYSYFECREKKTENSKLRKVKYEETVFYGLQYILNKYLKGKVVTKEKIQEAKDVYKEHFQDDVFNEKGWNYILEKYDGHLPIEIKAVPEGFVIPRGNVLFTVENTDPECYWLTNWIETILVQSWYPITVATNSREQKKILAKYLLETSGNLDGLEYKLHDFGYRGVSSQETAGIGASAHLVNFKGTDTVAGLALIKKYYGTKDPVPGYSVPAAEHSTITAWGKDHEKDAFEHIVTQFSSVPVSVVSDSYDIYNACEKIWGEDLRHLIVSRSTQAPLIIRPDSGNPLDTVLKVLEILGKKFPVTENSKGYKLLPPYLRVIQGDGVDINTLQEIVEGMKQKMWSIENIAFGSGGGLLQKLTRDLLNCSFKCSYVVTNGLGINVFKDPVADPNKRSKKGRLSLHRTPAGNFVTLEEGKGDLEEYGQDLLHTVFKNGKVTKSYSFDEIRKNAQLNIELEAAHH

Consider `O=C(/C=C/c1cccnc1)NCCCCC1CCN(C(=O)c2ccccc2)CC1` [FK866], for which the “BMAL1 acetylation at K537” value in the assay on BMAL1 Lys537 acetylation (10 nM FK866) was “heavily increased and displays a broader peak”. In addition, in the assay with BMAL1 Lys537 acetylation (10 nM FK866, any time of the circadian cycle), the “effect on BMAL1 protein levels” value is recorded as “no major effect”. At Nampt, the “inhibition of Nampt enzymatic activity” value is “specifically inhibits Nampt enzymatic activity”. In assay [1], the “increase of amplitude of oscillation (Per2 and Dbp), average” value was 30-40%; the “onset of the circadian peak for both genes (Per2 and Dbp), earlier by” value fell in the range of 3 to 4 h.

These data come from US20110269817A1, “COMPOSITIONS AND METHODS RELATED TO SIRT1 FUNCTION” (The Regents of the University of California, priority 2008, published 2011).
